From the supplement of paper PMC6335503
± gives the standard deviation of the averaged measurements.

Key:
Experiment in all cases: cell viability, percent of DMSO control (CellTiter-Glo); higher = more viable cells
Details in all cases: 72 h
[1] = tested on: DFTD cell line T1 (06/2887)
Description: (§1)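 Eight-point dose titration of 41 screen hits in triplicate wells on four Tasmanian devil DFTD tumour cell lines (T1-T4) and devil fibroblasts, 384-well plates. Viability was read by CellTiter-Glo (ATP) after 72 h at 37 °C. Percent of control per plate: DMSO wells = 100%, positive-control wells = 0%.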

[2] = tested on: DFTD cell line T4 (07/0192)
Description: as §1

[3] = tested on: DFTD cell line T2 (05/2569)
Description: as §1

[4] = tested on: DFTD cell line T3 (06/0368)
Description: as §1

Compound	cell viability ([1]; 0.00617 µM) [%]	cell viability ([1]; 0.0185 µM) [%]	cell viability ([1]; 0.0556 µM) [%]	cell viability ([1]; 0.166667 µM) [%]	cell viability ([1]; 0.5 µM) [%]	cell viability ([1]; 1.5 µM) [%]	cell viability ([1]; 4.5 µM) [%]	cell viability ([1]; 13.5 µM) [%]	cell viability ([2]; 0.00617 µM) [%]	cell viability ([2]; 0.0185 µM) [%]	cell viability ([2]; 0.0556 µM) [%]	cell viability ([2]; 0.166667 µM) [%]	cell viability ([2]; 0.5 µM) [%]	cell viability ([2]; 1.5 µM) [%]	cell viability ([2]; 4.5 µM) [%]	cell viability ([2]; 13.5 µM) [%]	cell viability ([3]; 0.00617 µM) [%]	cell viability ([3]; 0.0185 µM) [%]	cell viability ([3]; 0.0556 µM) [%]	cell viability ([3]; 0.166667 µM) [%]	cell viability ([3]; 0.5 µM) [%]	cell viability ([3]; 1.5 µM) [%]	cell viability ([3]; 4.5 µM) [%]	cell viability ([3]; 13.5 µM) [%]	cell viability ([4]; 0.00617 µM) [%]	cell viability ([4]; 0.0185 µM) [%]	cell viability ([4]; 0.0556 µM) [%]	cell viability ([4]; 0.166667 µM) [%]	cell viability ([4]; 0.5 µM) [%]	cell viability ([4]; 1.5 µM) [%]	cell viability ([4]; 4.5 µM) [%]	cell viability ([4]; 13.5 µM) [%]
CC#CC(=O)Nc1ccc2ncnc(Nc3cccc(Br)c3)c2c1	94 ± 1.7	95.5 ± 10	79.5 ± 27	63.3 ± 5.6	40.9 ± 1.1	21.1 ± 9.7	14.8 ± 1.1	12.3 ± 6.3	81.6 ± 19	98.5 ± 10	106 ± 20	73.9 ± 11	50.7 ± 1.8	22.7 ± 13	13.5 ± 5.1	4.04 ± 10	99.6 ± 5.3	85 ± 13	101 ± 18	84 ± 5.7	84.5 ± 1	44.6 ± 5.5	30.3 ± 8.2	33.4 ± 7.6	95.8 ± 5.2	105 ± 20	108 ± 30	76.6 ± 10	65.5 ± 12	38.7 ± 7	28.4 ± 4.2	18.3 ± 9.3
COc1cc2ncnc(Nc3ccc(Cl)cc3F)c2cc1OC	98.4 ± 38	95.7 ± 3.3	124 ± 36	110 ± 31	83.1 ± 28	44.3 ± 8.7	26.7 ± 7.2	36.9 ± 1.4	116 ± 7.2	99.5 ± 7.3	119 ± 36	97 ± 12	93.8 ± 12	75.3 ± 13	45 ± 6.2	35.2 ± 3.8	105 ± 20	86.8 ± 13	112 ± 22	116 ± 35	85.2 ± 24	59.5 ± 9.7	27.6 ± 4.8	28.3 ± 5	120 ± 13	89.3 ± 13	119 ± 19	97.1 ± 20	85.5 ± 8.9	66.1 ± 8.5	43.7 ± 8.6	47.2 ± 1.9
COc1cc2ncnc(Nc3cccc(Br)c3)c2cc1OC.Cl	126 ± 20	99 ± 21	112 ± 21	111 ± 19	63 ± 27	24.8 ± 4.3	22.8 ± 4.8	12.4 ± 4	126 ± 14	94 ± 30	105 ± 1.4	104 ± 9.2	91 ± 33	48.8 ± 3.7	28.6 ± 4.1	17.7 ± 5.7	115 ± 13	106 ± 32	106 ± 25	107 ± 11	77 ± 26	40.7 ± 2.4	32.9 ± 7.8	21.2 ± 5.5	127 ± 22	90.2 ± 19	118 ± 9.9	108 ± 7.1	89.1 ± 20	49 ± 2.4	39.8 ± 1.5	30.8 ± 7.7
